Values quoted from earlier work as cited in patent US5972639A, “Fluorescence-based assays for measuring cell proliferation” (Irori, priority 1997, dated 1999).

What was measured:
Conditions in all cases: cited from earlier work
[1] = molecular target: Alkaline phosphatase (E. coli) (Escherichia coli, UniProt P00634)
Alkaline phosphatase = test system: Alkaline phosphatase
Acid phosphatase = test system: Acid phosphatase

Sequence of Alkaline phosphatase (E. coli) (P00634 22-471): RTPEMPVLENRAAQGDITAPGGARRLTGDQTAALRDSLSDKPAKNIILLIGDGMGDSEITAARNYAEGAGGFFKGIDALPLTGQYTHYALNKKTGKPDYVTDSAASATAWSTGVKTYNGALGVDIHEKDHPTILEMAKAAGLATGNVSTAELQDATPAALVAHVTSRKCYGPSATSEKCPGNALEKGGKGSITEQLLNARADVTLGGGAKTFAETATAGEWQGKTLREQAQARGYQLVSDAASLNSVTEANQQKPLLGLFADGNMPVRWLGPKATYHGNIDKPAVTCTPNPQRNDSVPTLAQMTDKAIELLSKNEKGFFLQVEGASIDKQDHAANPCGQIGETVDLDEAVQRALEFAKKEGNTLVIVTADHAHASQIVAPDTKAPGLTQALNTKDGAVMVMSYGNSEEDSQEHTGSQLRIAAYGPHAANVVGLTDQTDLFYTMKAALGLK

For `O=[N+]([O-])c1ccc(OP(=O)(O)O)cc1` [p-NPP, p-nitrophenyl phosphate], the Km [1] is given as 94 µM.

For `COC(=O)CCSP(=O)(O)O` [S-[2-(Methoxy-carboxyl)ehtyl] phosphorothioate], the “Alkaline phosphatase, products identified” value (Alkaline phosphatase) is given as “d, ^32 Pi” and the “Acid phosphatase, products identified” value (Acid phosphatase) is given as “No cleavage”.

For `CC(=O)NCCSP(=O)(O)O` [N-Acetylcysteamine S-phosphate], the “Alkaline phosphatase, products identified” value (Alkaline phosphatase) is listed as “N-Acetylcysteamine” and the “Acid phosphatase, products identified” value (Acid phosphatase) is listed as “No cleavage”.
